These results are taken from article PMC8936051 (Journal of medicinal chemistry, 2022).

Test [1] relates to SARS-CoV-2 PP entry into HEK293-ACE2 cells. Kind of test: microbe, parasite or virus in culture. In kind it is cell-based.
For test [2], the system named is SARS-CoV-2 live virus. Kind of test: microbe, parasite or virus in culture. In kind it is cell-based.
The target of test [3] is T1, SARS-CoV-2 3CL protease (Severe acute respiratory syndrome coronavirus 2, UniProt P0DTD1). In kind it is biochemical. The note with it: read-out: IC50, 3CL protease assay.
Test [4] concerns the target T1, SARS-CoV-2 3CL protease. The note with it: read-out: IC50, 3CL protease; finding of Sun et al.; cited from earlier work.
The mark [5] stands for this setting: Severe acute respiratory syndrome coronavirus 2, read-out: IC50, PP entry assay.
The mark [6] stands for this setting: Severe acute respiratory syndrome coronavirus 2, read-out: AC50 (potency), CPE assay.
Setting [7] is: read-out: AC50 (potency), CPE assay.

Where two headings read alike, the source gives them in different places. Peptide text beside a SMILES is read from it. * marks the point of attachment. Cbz = O=C(OCc1ccccc1)*; CH2F = FC*

For orientation: IC50 means the concentration that inhibits the measured activity by half. In general, AC50 refers to the concentration at which the activity in the assay is half-maximal. Consider `COc1ccc2cc1Oc1ccc(cc1)C[C@H]1c3c(cc4c(c3Oc3cc5c(cc3OC)CCN(C)[C@@H]5C2)OCO4)CCN1C` [NCGC00161621, Cepharanthine], for which the “efficacy, PP entry assay” value in test [1] came out at 102%. In test [1] (setting [5]), the IC50 was 6.88 µM. Moreover, the AC50 in test [2] (setting [6]) was 1.41 ± 0.39 µM.

Turning to `OC(c1cc(-c2ccc(Cl)cc2)nc2ccccc12)C1CCCCN1` (centres unmarked) [NCGC00482724, Vacquinol-1], in test [2] (setting [7]), the AC50 is under 5 µM.

In the case of `C=C(c1ccc(C(=O)O)c(F)c1)c1cc2c(cc1C)C(C)(C)CCC2(C)C` [NCGC00371011, Fluorobexarotene], the half-maximal inhibitory concentration (IC50) in test [3] worked out at 28.9 ± 2.35 µM.

As to `CCCc1cc(C)[nH]c(=O)c1CNC(=O)c1cc(-c2ccc(N3CCN(C)CC3)nc2)nc2c1cnn2C(C)C` [NCGC00590975, JQEZ5], the AC50 in test [2] (setting [7]) is under 5 µM.

`CCN(CC)CCCCNc1nc2cc(Cl)c(Cl)cc2nc1-c1ccc(-c2cccs2)s1` [NCGC00263128, PD 0220245]: the concentration at half-maximal activity (AC50) in test [2] (setting [7]) was under 5 µM.

As to `CCN(CC)Cc1cc(Nc2ccnc3cc(Cl)ccc23)ccc1O` [NCGC00017063, Amodiaquine], the “efficacy, PP entry assay” value in test [1] is reported as 103%. Further, the 50% inhibitory concentration (IC50) in test [1] (setting [5]) is 19 µM. Besides, the half-maximal activity concentration (AC50) in test [2] (setting [6]) was 4.14 ± 1.41 µM.

With `COC(=O)C[C@H](NC(=O)[C@H](CCSC)NC(=O)[C@H](CCC(N)=O)NC(=O)[C@H](CC(=O)OC)NC(=O)OCc1ccccc1)C(=O)CF` [NCGC00390337, Z-DQMD-FMK] (Cbz-D(OMe)QMD(OMe)-CH2F), the IC50 was 0.94 µM in test [4] and 0.92 µM in test [3].

With `O=C(NCc1ccccc1)[C@H](Cc1ccccc1)NC(=O)[C@H]1O[C@@H]1C(=O)NCCc1ccc(O)cc1` [NCGC00345807, CAA-0225], in test [1], the “efficacy, PP entry assay” value is on record as 89%. In addition, the IC50 in test [1] (read-out: IC50, PP entry assay) was determined as 0.6 µM. For the same compound, the AC50 in test [2] (setting [7]) was 0.2 ± 0.07 µM.

As to `CC[C@@]1(O)C(=O)OCc2c1cc1n(c2=O)Cc2c-1nc1cc(F)c(C)c3c1c2[C@@H](N)CC3` [NCGC00390584, Exatecan], the IC50 in test [1] (setting [5]) turned out to be 0.0031 µM.

On to `COc1ccc(-c2cc3c(nc2-c2ccccc2)nc(C(=O)NCCN(C)C)n3C)cn1` [NCGC00417833], for which the half-maximal activity concentration (AC50) in test [2] (setting [7]) was determined as 22 µM.

For the compound `Nc1nc(Nc2ccc3c(c2)CC[C@@H](N2CCCC2)CC3)nn1-c1cc2c(nn1)-c1ccccc1CCC2` [NCGC00386665, Bemcentinib], in test [1], the “efficacy, PP entry assay” value came to 112%. Also, the half-maximal inhibitory concentration (IC50) in test [1] (setting [5]) was found to be 19 µM. Moreover, the concentration at half-maximal activity (AC50) in test [2] (setting [6]) came out at 3.36 µM.

For `COc1ccc(C(C)(C)C)cc1CN[C@H]1C2CCN(CC2)[C@H]1C(c1ccccc1)c1ccccc1` [NCGC00390625, Maropitant], the AC50 in test [2] (setting [7]) came to 3.55 ± 1.12 µM.

For the compound `CCN(CC)CCCNc1ccnc2cc(Cl)ccc12` [NCGC00599688, AQ-13], the IC50 in test [1] (read-out: IC50, PP entry assay) was 14.2 ± 11.7 µM. In test [2] (setting [7]), the AC50 worked out at 3.98 µM.
